Results published in patent US20020048585A1, “Methods of modulating wound healing and angiogenesis” (priority 2000, published 2002).

System: primary skin fibroblasts
Assay: In vitro wound closure (migration) test in confluent fibroblast cultures
Format: cell-based, mouse
Settings: medium (DMEM with 2% FBS) supplemented with 25 ng/ml; syndecan-4+/+, +/- and -/- fibroblasts
Protocol: Primary skin fibroblasts were isolated from newborn syndecan-4+/+, syndecan-4+/−, and syndecan-4−/− mice from the same litter. Mice were sacrificed, and their skins were removed, flattened, and floated on a 0.25% trypsin solution (Life Technologies Inc., Gaithersburg, Md., USA) at 4° C. overnight. The dermis was separated from the epidermis and dissociated by stirring at room temperature for 30 minutes in HBSS containing collagenase (500 μg/ml) (Life Technologies Inc.). The cell suspension of each skin was passed through a cell strainer (Becton Dickinson and Co., Franklin Lakes, N.J., USA) and transferred to a 10-cm cell culture dish and cultured as described previously (Saoncella et al.1999. Proc. Natl. Acad. Sci. USA. 96:2805-2810). Dermal fibroblasts were maintained at subconfluent densities and used between passages three and six.
Primary fibroblast cultures were established for 2 days in DMEM with 10% FBS followed by an overnight culture in DMEM with 2% FBS. In vitro wound closure tests were performed by creating clear lines in confluent cultures with a sterile yellow plastic pipette tip. After two washes with medium, the monolayers were covered with fresh medium and the migration of the cells into the cleared spaces was monitored over time. The control medium used during wound closure was DMEM with 2% FBS. […]

Substance	rate of wound closure
EGF: growth factor (Becton Dickinson) added to culture medium (NSDSECPLSHDGYCLHDGVCMYIEALDKYACNCVVGYIGERCQYRDLKWWELR; Epidermal growth factor; UniProt P01133 971-1023, looked up)	did not alter the rate of wound closure
FGF-2: growth factor, ligand of the FGF-2 receptor (R&D Systems), added to culture medium	did not alter the rate of wound closure
